Measured values taken from patent US7632952B2, “Benzothiazoles and the use thereof as medicaments” (Aventis Pharma S.A., priority 2004, dated 2009).
Counter-ions that a name gives are not always drawn.

Key:
Aurora 2 = molecular target: T1, Aurora 2 (Homo sapiens, UniProt O14965); assay: Aurora 2 kinase radioactivity scintillation test; assay type: biochemical
T1 construct: A complete recombinant Aurora 2 enzyme, the N-terminal end of which was labeled with histidine; His tag (N); made in house; host or cells: E. coli
T1 sequence (O14965 1-403): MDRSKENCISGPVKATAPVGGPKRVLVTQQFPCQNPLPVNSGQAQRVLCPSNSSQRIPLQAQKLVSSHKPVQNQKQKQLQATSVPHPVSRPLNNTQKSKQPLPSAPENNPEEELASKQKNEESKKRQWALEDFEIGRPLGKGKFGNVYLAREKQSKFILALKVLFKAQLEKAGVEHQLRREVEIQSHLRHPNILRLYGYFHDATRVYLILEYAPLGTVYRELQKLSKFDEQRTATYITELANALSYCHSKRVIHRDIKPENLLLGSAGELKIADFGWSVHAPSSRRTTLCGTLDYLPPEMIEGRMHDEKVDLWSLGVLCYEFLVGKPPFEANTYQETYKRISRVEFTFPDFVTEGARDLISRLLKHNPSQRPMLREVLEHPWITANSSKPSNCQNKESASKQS
Protocol: The inhibitory effect of the compounds toward the kinase Aurora 2 is determined via a radioactivity scintillation test.
A complete recombinant Aurora 2 enzyme, the N-terminal end of which was labeled with histidine, was expressed in E. coli and purified to a quality close to homogeneity.
The C-terminal fragment (Q1687-H2101) of an NuMA (nuclear protein which is associated with the Mitotic Apparatus) expressed in E. coli, and the N-terminal end of which was labeled with histidine, was purified by chromatography with nickel chelate and used as substrate in the Aurora 2 kinase test.
The kinase activity of Aurora 2 is measured by scintillation on a microplate saturated with nickel chelate (New England Nuclear, SMP107 model). Each well contains 100 μl of the following solution: 0.02 μM of Aurora 2; 0.5 μM of NuMA substrate; 1 μM of ATP supplemented with 0.5 μCi of ATP-[^33P]. The solutions are incubated for 45 minutes at 37° C. The test buffer is then removed and the wells are rinsed twice with 300 μl of kinase buffer. The radioactivity is measured in each well using a Packard Model Top Count NXT machine.
The background noise is measured in duplicate in wells containing the radioactive ATP alone containing buffered kinase treated in the same manner as for the other samples.
The activity of the control is determined by measuring in duplicate the radioactivity in the complete test mixture (ATP, Aurora 2 and NuMA substrate), in the absence of test compound.
The inhibition of the activity of Aurora 2 with a compound of the invention is expressed as a percentage of inhibition of the control activity in the absence of test compound. Staurosporin is added to each plate as inhibition control.

CDK2/cyclin E = CDK2/cyclin E (Homo sapiens, UniProt P24941); assay: CDK2/cyclin E Flashplate test in 96-well format; assay type: biochemical; conditions: read-out: CDK2 IC50
In short: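 CDK2/cyclin E-(His)6 from baculovirus-coinfected Sf21 cells was IMAC-purified. Kinase reaction used biotinylated pRb peptide (10 μM final), [γ-33P]ATP in HEPES pH 7.5 with Mg2+ and DTT, at 30 °C in streptavidin Flashplates. 33P incorporation was scintillation counted and IC50 determined.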

HeLa = HeLa proliferation; assay type: cell-based; conditions: Homo sapiens, read-out: HeLa proliferation EC50 (nM) DG

| IC50 (Aurora 2) [nM] | IC50 (CDK2/cyclin E) [nM] | EC50 (HeLa) [nM] | SMILES |
| --- | --- | --- | --- |
| 3080 | 108 | 76 | COCC(=O)Nc1nc2ccc(OS(=O)(=O)c3ccc(NCCN(C(C)C)C(C)C)cc3)cc2s1 [Example 44, 4-(2-Diisopropylaminoethylamino)benzenesulfonic acid 2-(2-methoxyacetylamino)benzothiazol-6-yl ester] |
| 6940 | > 10000 | > 12500 | O=C(Nc1nc2ccc(OS(=O)(=O)c3ccc(-c4ccccn4)s3)cc2s1)C1CC1 [Example 85, 5-pyridin-2-ylthiophene-2-sulfonic acid 2-(cyclopropanecarbonylamino)benzothiazol-6-yl ester] |
| 34 | 92 | 807 | CNc1ccc(S(=O)(=O)Oc2ccc3nc(NC(=O)C4CC4)sc3c2)cc1 [Example 10, 4-methylaminobenzenesulfonic 2-(cyclopropane-carbonylamino)benzothiazol-6-yl ester] |
| 826 | 107 | 122 | CC(=O)Nc1nc2ccc(OS(=O)(=O)c3ccc(NCCNC(C)C)cc3)cc2s1 [Example 65, 4-(2-isopropylaminoethylamino)benzenesulfonic acid 2-acetylaminobenzothiazol-6-yl ester] |
| 105 | 19 | 80 | CC(C)(O)CNc1ccc(S(=O)(=O)Oc2ccc3nc(NC(=O)C4CC4)sc3c2)cc1 [Example 11, 4-(2-hydroxy-2-methylpropylamino)benzene-sulfonic 2-(cyclopropanecarbonylamino)benzothiazol-6-yl ester] |
| 2010 | 49 | 36 | CC(=O)Nc1nc2ccc(OS(=O)(=O)c3ccc(NCCN(C(C)C)C(C)C)cc3)cc2s1 [Example 43, 4-(2-Diisopropylaminoethylamino)benzenesulfonic acid 2-acetylaminobenzothiazol-6-yl ester] |
| 172 | 25 | 16 | CC(C)NCCNc1ccc(S(=O)(=O)Oc2ccc3nc(NC(=O)C4CC4)sc3c2)cc1 [Example 53, 4-(2-isopropylaminoethylamino)benzenesulfonic 2-(cyclopropanecarbonylamino)benzothiazol-6-yl ester hydrochloride] |
| 3180 | 40 | 79 | CCC(=O)Nc1nc2ccc(OS(=O)(=O)c3ccc(NCCN(C(C)C)C(C)C)cc3)cc2s1 [Example 57, 4-(2-diisopropylaminoethylamino)benzenesulfonic acid 2-propionylaminobenzothiazol-6-yl ester hydrochloride] |
| 2890 | 136 | 289 | CC(C)N(CCNc1ccc(S(=O)(=O)Oc2ccc3nc(NC(=O)C4CCCC4)sc3c2)cc1)C(C)C [Example 45, 4-(2-Diisopropylaminoethylamino)benzenesulfonic acid 2-(cyclo-pentanecarbonylamino)benzothiazol-6-yl ester] |
| 172 | 25 | 16 | CC(C)N(CCNc1ccc(S(=O)(=O)Oc2ccc3nc(NC(=O)C4CC4)sc3c2)cc1)C(C)C [Example 12, 4-(2-diisopropylaminoethylamino)benzenesulfonic 2-(cyclopropanecarbonylamino)benzothiazol-6-yl ester] |
| 2800 | 105 | 199 | CC(C)N(CCNc1ccc(S(=O)(=O)Oc2ccc3nc(NC(=O)C4CCC4)sc3c2)cc1)C(C)C [Example 60, 4-(2-diisopropylaminoethylamino)benzenesulfonic acid 2-(cyclobutanecarbonylamino)benzothiazol-6-yl ester hydrochloride] |
| 1050 | 79 | 8370 | CC(C)(O)CNc1ccc(S(=O)(=O)Oc2ccc3nc(NC(=O)CCc4cccnc4)sc3c2)cc1 [Example 63, 4-(2-hydroxy-2-methylpropylamino)benzene-sulfonic acid 2-(3-pyrid-3-ylpropionylamino)benzothiazol-6-yl ester hydro-chloride] |
| 5830 | 73 | 43 | CC(C)C(=O)Nc1nc2ccc(OS(=O)(=O)c3ccc(NCCN(C(C)C)C(C)C)cc3)cc2s1 [Example 55, 4-(2-diisopropylaminoethylamino)benzenesulfonic acid 2-isobutyrylaminobenzothiazol-6-yl ester hydrochloride] |
| 258 | 105 | 2510 | CC(C)(CNc1ccc(S(=O)(=O)Oc2ccc3nc(NC(=O)C4CC4)sc3c2)cc1)OP(=O)(O)O [Example 89, 4-(2-methyl-2-phosphonooxypropylamino)benzene-sulfonic acid 2-(cyclopropanecarbonylamino)benzothiazol-6-yl ester] |
| 68 | 6980 | 4430 | O=C(Nc1nc2ccc(OS(=O)(=O)c3cccs3)cc2s1)C1CC1 [Example 33h, Thiophene-2-sulfonic acid 2-(cyclopro-panecarbonylamino)benzothiazol-6-yl ester] |
| 325 | > 10000 | 8390 | CC(C)N(CCNc1ccc(S(=O)(=O)Oc2ccc3nc(NC(=O)C4(N)CCCC4)sc3c2)cc1)C(C)C [Example 41, 4-(2-diisopropylaminoethylamino)benzenesulfonic acid 2-[(1-aminocyclopentanecarbonyl)amino]benzothiazol-6-yl ester] |
| 65 | 68 | 611 | O=C(Nc1nc2ccc(OS(=O)(=O)c3ccc(NCCCn4ccnc4)cc3)cc2s1)C1CC1 [Example 9, 4-(3-imidazol-1-ylpropylamino)benzenesulfonic 2-(cyclopropanecarbonylamino)benzothiazol-6-yl ester] |
